Values joined by “and” are separate entries in the source; they are usually repeats but may differ in a detail not shown here. Equal entries are not always repeated. Inconclusive results and toxic doses are left out. Rule for the calls: active = survival T/C of 150% or more; inactive = T/C below 125% in these data.
Tested on: B6C3F1 mice, Lewis lung carcinoma iv, survival T/C
Experiment: NCI In Vivo Anticancer Drug Screen. Data for tumor model Lewis Lung Carcinoma (intravenous) in B6C3F1 mice
Conditions: endpoint: median survival time, schedule: Q01DX009 (ip), higher = longer survival
Outline: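 Tumors were transplanted into mice, which were then dosed with compound or vehicle. Survival was recorded in each group, and the treated figure was divided by the control figure.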

[1] = dose: 5.0 mg/kg/injection, vehicle: saline with Tween-80
[2] = dose: 10.0 mg/kg/injection, vehicle: saline with Tween-80
[3] = dose: 1.56 mg/kg/injection, vehicle: saline
[4] = dose: 3.12 mg/kg/injection, vehicle: saline
[5] = dose: 6.25 mg/kg/injection, vehicle: saline
[6] = dose: 12.5 mg/kg/injection, vehicle: saline
[7] = dose: 25.0 mg/kg/injection, vehicle: saline
[8] = dose: 50.0 mg/kg/injection, vehicle: saline
[9] = dose: 400.0 mg/kg/injection, vehicle: saline
[10] = dose: 800.0 mg/kg/injection, vehicle: saline
[11] = dose: 3.0 mg/kg/injection, vehicle: saline with Tween-80
[12] = dose: 6.0 mg/kg/injection, vehicle: saline with Tween-80
[13] = dose: 100.0 mg/kg/injection, vehicle: saline
[14] = dose: 200.0 mg/kg/injection, vehicle: saline

Measured: T/C

CC(=O)N(C)C
inactive: dose: 122.5 mg/kg/injection, vehicle: saline 88 % of control | dose: 225.0 mg/kg/injection, vehicle: saline 95 % of control | dose: 450.0 mg/kg/injection, vehicle: saline 110 % of control | dose: 900.0 mg/kg/injection, vehicle: saline 100 % of control | dose: 1800.0 mg/kg/injection, vehicle: saline 93 % of control | dose: 3600.0 mg/kg/injection, vehicle: saline 104 % of control

Nc1nncs1
inactive: dose: 15.19 mg/kg/injection, vehicle: Klucel (hydroxypropylcellulose) (HPC) 106 % of control | dose: 20.25 mg/kg/injection, vehicle: Klucel (hydroxypropylcellulose) (HPC) 100 % of control | dose: 27.0 mg/kg/injection, vehicle: Klucel (hydroxypropylcellulose) (HPC) 113 % of control | dose: 36.0 mg/kg/injection, vehicle: Klucel (hydroxypropylcellulose) (HPC) 103 % of control and 116 % of control | dose: 48.0 mg/kg/injection, vehicle: Klucel (hydroxypropylcellulose) (HPC) 103 % of control

CN1CCN(c2ccc([N+](=O)[O-])c3no[n+]([O-])c23)CC1
inactive: [1] 120 % of control | [2] 111 % of control

CC[C@@H](C)[C@@H]1NC(=O)C(NC(=O)C(CC(C)C)N(C)C(=O)C2CCCN2C(=O)C(C)O)C(C)OC(=O)C(Cc2ccc(OC)cc2)N(C)C(=O)C2CCCN2C(=O)C(CC(C)C)NC(=O)C(C)C(=O)C(C(C)C)OC(=O)C[C@H]1O (some centres not stated)
inactive: dose: 25.0 micrograms/kg/injection, vehicle: distilled water + alcohol 96 % of control | dose: 50.0 micrograms/kg/injection, vehicle: distilled water + alcohol 102 % of control | dose: 100.0 micrograms/kg/injection, vehicle: distilled water + alcohol 98 % of control | dose: 200.0 micrograms/kg/injection, vehicle: distilled water + alcohol 96 % of control | dose: 400.0 micrograms/kg/injection, vehicle: distilled water + alcohol 98 % of control

Cc1ccc2nc(-c3ccc4nc(-c5ccc(N=Nc6ccc(-c7nc8ccc(-c9nc%10ccc(C)c(S(=O)(=O)O)c%10s9)cc8s7)cc6)cc5)sc4c3)sc2c1S(=O)(=O)O
inactive: dose: 12.5 mg/kg/injection, vehicle: suspension in saline 95 % of control | dose: 25.0 mg/kg/injection, vehicle: suspension in saline 98 % of control | dose: 50.0 mg/kg/injection, vehicle: suspension in saline 107 % of control | dose: 100.0 mg/kg/injection, vehicle: suspension in saline 107 % of control

Cc1cc(N2C(=O)CCSC2=S)ccc1Cl
inactive: dose: 12.5 mg/kg/injection, vehicle: Klucel (hydroxypropylcellulose) (HPC) 120 % of control | dose: 25.0 mg/kg/injection, vehicle: Klucel (hydroxypropylcellulose) (HPC) 97 % of control | dose: 50.0 mg/kg/injection, vehicle: Klucel (hydroxypropylcellulose) (HPC) 102 % of control | dose: 100.0 mg/kg/injection, vehicle: Klucel (hydroxypropylcellulose) (HPC) 111 % of control | dose: 200.0 mg/kg/injection, vehicle: Klucel (hydroxypropylcellulose) (HPC) 124 % of control

O=CC(O)C(O)C(O)C(O)CO (configuration not stated)
inactive: dose: 75.0 mg/kg/injection, vehicle: saline 101 % of control | dose: 150.0 mg/kg/injection, vehicle: saline 97 % of control | dose: 300.0 mg/kg/injection, vehicle: saline 97 % of control | dose: 600.0 mg/kg/injection, vehicle: saline 97 % of control | dose: 1200.0 mg/kg/injection, vehicle: saline 96 % of control

Brc1c(NC2=NCCN2)ccc2nccnc12
inactive: [3] 103 % of control | [4] 114 % of control | [5] 100 % of control | [6] 101 % of control | [7] 101 % of control | [8] 112 % of control

COc1cccc2c1C(=O)c1c(O)c3c(c(O)c1C2=O)CC(O)(C(=O)CO)CC3OC1CC(N)C(O)C(C)O1 (configuration not stated)
inactive: [3] 110 % of control | dose: 1.87 mg/kg/injection, vehicle: water 107 % of control | [4] 109 % of control | dose: 3.75 mg/kg/injection, vehicle: water 107 % of control | dose: 4.5 mg/kg/injection, vehicle: water 101 % of control | [5] 123 % of control | dose: 7.5 mg/kg/injection, vehicle: water 109 % of control | dose: 9.0 mg/kg/injection, vehicle: water 112 % of control | dose: 15.0 mg/kg/injection, vehicle: water 119 % of control | dose: 18.0 mg/kg/injection, vehicle: water 123 % of control | [7] 119 % of control | [8] 90 % of control

CN1N=C(N)c2cn(C3OC(COP(=O)(O)O)C(O)C3O)c3ncnc1c23 (configuration not stated)
inactive: dose: 6.25 mg/kg/injection, vehicle: water 98 % of control

OCCCN1CCCCC1CO (configuration not stated)
inactive: [9] 96 % of control | [10] 97 % of control

N#CC(=C1SCS1)[N+](=O)[O-]
inactive: dose: 0.37 mg/kg/injection, vehicle: saline with Tween-80 98 % of control | dose: 0.75 mg/kg/injection, vehicle: saline with Tween-80 107 % of control | dose: 1.5 mg/kg/injection, vehicle: saline with Tween-80 106 % of control | [11] 109 % of control | [12] 106 % of control | dose: 12.0 mg/kg/injection, vehicle: saline with Tween-80 92 % of control

CC1=C(C)C(=O)O[C@@H]([C@](C)(O)[C@]2(O)CC[C@@]3(O)[C@@H]4C[C@H]5O[C@]56[C@@H](O)C=CC(=O)[C@]6(C)[C@H]4CC[C@]23C)C1
inactive: dose: 1.0 mg/kg/injection, vehicle: saline 97 % of control | dose: 2.0 mg/kg/injection, vehicle: saline 100 % of control and 101 % of control | dose: 4.0 mg/kg/injection, vehicle: saline 101 % of control and 104 % of control | dose: 8.0 mg/kg/injection, vehicle: saline 94 % of control and 101 % of control | dose: 16.0 mg/kg/injection, vehicle: saline 94 % of control | dose: 32.0 mg/kg/injection, vehicle: saline 92 % of control

c1cc[c]([Sn]([NH]c2ncnc3[nH]cnc23)([NH]c2ncnc3[nH]cnc23)[c]2ccccc2)cc1
inactive: [6] 103 % of control | [7] 95 % of control | [8] 106 % of control | [13] 107 % of control | [14] 98 % of control

Nc1ncnc2c1cnn2Cc1ccc(Cl)cc1
inactive: [7] 94 % of control | [8] 106 % of control | [13] 111 % of control | [14] 93 % of control

O=C(O)C1CC(O)CN1 (configuration not stated)
inactive: [8] 98 % of control | [13] 91 % of control | [14] 91 % of control | [9] 114 % of control | [10] 109 % of control

O=C1c2cccc3cc([N+](=O)[O-])cc(c23)C(=O)N1CCN1CCCC1
inactive: [11] 106 % of control | [12] 115 % of control

CCC1=C2C(=O)c3ccccc3C2=C(C)S(=O)(=O)O1
inactive: dose: 3.12 mg/kg/injection, vehicle: saline with Tween-80 104 % of control | dose: 6.25 mg/kg/injection, vehicle: saline with Tween-80 99 % of control | dose: 12.5 mg/kg/injection, vehicle: saline with Tween-80 97 % of control | dose: 25.0 mg/kg/injection, vehicle: saline with Tween-80 107 % of control

C[n+]1cccc(NC(=O)c2ccc(NC(=O)C34CCC(C(=O)Nc5ccc(C(=O)Nc6ccc[n+](C)c6)cc5)(CC3)CC4)cc2)c1
inactive: [1] 106 % of control | [2] 122 % of control
